Data from patent US9062061B2, “Compound having PARP inhibitory activity” (SANTEN PHARMACEUTICAL CO., LTD., priority 2011, dated 2015).

Molecular target: T1, human recombinant PARP1 (Homo sapiens, UniProt P09874)
T1 construct: purchased Trevigen 4677-096-K
Assay: PARP inhibitory activity measurement test (Universal Colorimetric PARP Assay kit, Trevigen)
Type: biochemical
Conditions: compound concentration: 10 μM, read-out: PARP1 inhibition rate (%)
Experimental: For evaluating PARP inhibitory activity of the present compound, inhibitory activity of each test compound against human recombinant PARP 1 was measured using Universal Colorimetric PARP Assay kit with Histone-Coated Strip Wells (Cat No.: 4677-096-K) available from Trevigen. The test was conducted according to the procedure in the instruction attached to this kit. The concrete operation will be described below.
After dissolving the test compound in dimethyl sulfoxide, the solution was diluted with a PARP buffer attached to the kit to prepare a 50 μM test compound solution.
In each well of a histone-coated 96-well plate, 10 μL of the test compound solution (50 μM), 15 μL of human recombinant PARP1 (33.3 Unit/mL) and 25 μL of PARP cocktail (containing activated DNA and biotinated NAD) were added, and incubated at room temperature for 1 hour (final reaction amount: 50 μL). Each well was washed twice with 200 μL of 0.1% Triton-X-containing Dulbecco's phosphate buffer, and further washed twice with 200 μL of Dulbecco's phosphate buffer, and then 50 μL of Strep-HRP was added, followed by incubation at room temperature for 1 hour. Each well was washed twice with 200 μL of 0.1% Triton-X-containing Dulbecco's phosphate buffer, and further washed twice with 200 μL of Dulbecco's phosphate buffer, and then 50 μL of TACS-Sapphire coloriometric substrate was added, followed by incubation at room temperature for 15 minutes. After stopping the reaction by adding 50 μL of 0.2 M HCl, absorbance at 450 nm (Abs 450) was measured by a microplate reader. The number of examples in each group was 1 to 2.
Using a well into which dimethyl sulfoxide and a PARP buffer were added in place of the test compound solution and human recombinant PARP1, the above operation was conducted as a negative control.
Using a well into which a PARP buffer containing dimethyl sulfoxide was added in place of the test compound solution, the above operation was conducted as a positive control.
PARP1 inhibition rate (%) was calculated according to the following Formula 1. PARP1 inhibition rate(%)=(AbsB−AbsX)/(AbsB−AbsA)×100 [Formula 1]
AbsA: absorbance of negative control (Abs 450)
AbsB: absorbance of positive control (Abs 450)
AbsX: absorbance of test compound-treated group (Abs 450)

T1 sequence (P09874 whole entry): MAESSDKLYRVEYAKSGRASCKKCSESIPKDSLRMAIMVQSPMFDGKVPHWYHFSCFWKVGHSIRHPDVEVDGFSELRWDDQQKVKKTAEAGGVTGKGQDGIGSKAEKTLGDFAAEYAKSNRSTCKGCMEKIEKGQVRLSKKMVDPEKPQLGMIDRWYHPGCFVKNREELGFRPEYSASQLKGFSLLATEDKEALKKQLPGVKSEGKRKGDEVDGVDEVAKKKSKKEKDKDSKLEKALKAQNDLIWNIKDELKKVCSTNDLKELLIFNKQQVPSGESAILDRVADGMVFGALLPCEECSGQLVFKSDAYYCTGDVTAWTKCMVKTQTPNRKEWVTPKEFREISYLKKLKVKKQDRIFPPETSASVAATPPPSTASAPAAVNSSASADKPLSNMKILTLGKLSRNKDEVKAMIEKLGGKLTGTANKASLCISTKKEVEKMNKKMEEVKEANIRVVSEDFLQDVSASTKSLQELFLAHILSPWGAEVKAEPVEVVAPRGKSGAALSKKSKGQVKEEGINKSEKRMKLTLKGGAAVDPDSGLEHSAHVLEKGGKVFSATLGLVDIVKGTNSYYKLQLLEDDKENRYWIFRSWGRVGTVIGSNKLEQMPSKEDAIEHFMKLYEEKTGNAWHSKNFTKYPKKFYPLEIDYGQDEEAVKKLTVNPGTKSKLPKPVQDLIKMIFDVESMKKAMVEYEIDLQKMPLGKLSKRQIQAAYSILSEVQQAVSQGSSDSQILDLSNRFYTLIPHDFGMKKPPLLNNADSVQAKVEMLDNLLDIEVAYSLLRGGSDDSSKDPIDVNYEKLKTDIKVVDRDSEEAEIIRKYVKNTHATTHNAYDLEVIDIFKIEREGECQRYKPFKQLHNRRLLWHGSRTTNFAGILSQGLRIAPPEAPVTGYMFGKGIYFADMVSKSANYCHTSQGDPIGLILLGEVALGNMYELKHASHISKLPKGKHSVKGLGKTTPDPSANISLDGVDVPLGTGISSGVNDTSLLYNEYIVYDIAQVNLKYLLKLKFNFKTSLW

Row | SMILES | inhibition at 10 µM
1 | O=C(Nc1ccccc1)c1cc2[nH]c(=O)c3ccccc3n2c1 [Compound 1-49, 2-(Phenylaminocarbonyl)pyrrolo[1,2-a]quinazolin-5(4H)-one] | 36%
2 | CN1CCCN(C(=O)c2cc3[nH]c(=O)c4ccccc4n3c2)CC1 [Compound 1-50, 2-(4-Methylhomopiperazine-1-carbonyl)pyrrolo[1,2-a]quinazolin-5(4H)-one] | 92%
3 | CN(C)CCNC(=O)c1cc2[nH]c(=O)c3ccccc3n2c1 [Compound 1-51, 2-[(2-Dimethylaminoethyl)aminocarbonyl]pyrrolo[1,2-a]quinazolin-5(4H)-one] | 92%
4 | O=C(NCc1ccncc1)c1cc2[nH]c(=O)c3ccccc3n2c1 [Compound 1-52, 2-[(Pyridin-4-ylmethyl)aminocarbonyl]pyrrolo[1,2-a]quinazolin-5(4H)-one] | 94%
5 | O=C(NCCN1CCOCC1)c1cc2[nH]c(=O)c3ccccc3n2c1 [Compound 1-53, 2-[2-(Morpholin-4-ylethyl)aminocarbonyl]pyrrolo[1,2-a]quinazolin-5(4H)-one] | 96%
6 | O=C(NCc1ccccc1)c1cc2[nH]c(=O)c3ccccc3n2c1 [Compound 1-54, 2-(Benzylaminocarbonyl)pyrrolo[1,2-a]quinazolin-5(4H)-one] | 81%
7 | O=C(NCCc1ccccc1)c1cc2[nH]c(=O)c3ccccc3n2c1 [Compound 1-55, 2-(2-Phenylethylaminocarbonyl)pyrrolo[1,2-a]quinazolin-5(4H)-one] | 81%
8 | O=C(NCCCc1ccccc1)c1cc2[nH]c(=O)c3ccccc3n2c1 [Compound 1-56, 2-(3-Phenylpropylaminocarbonyl)pyrrolo[1,2-a]quinazolin-5(4H)-one] | 83%
9 | O=c1[nH]c2cc(CN3CC=C(c4ccccc4)CC3)cn2c2ccccc12 [Compound 2-6, 2-(4-Phenyl-1,2,3,6-tetrahydropyridin-1-ylmethyl)pyrrolo[1,2-a]quinazolin-5(4H)-one] | 100%

Other lines, results leading:

Row | inhibition at 10 µM | SMILES
10 | 78% | O=c1[nH]c2cc(CN3CCN(Cc4ccc(Cl)cc4)CC3)cn2c2ccccc12 [Compound 2-2, 2-[4-(4-Chlorobenzyl)piperazin-1-ylmethyl]pyrrolo[1,2-a]quinazolin-5(4H)-one]
11 | 99% | O=c1[nH]c2cc(CN3CCN(c4nccs4)CC3)cn2c2ccccc12 [Compound 2-3, 2-[4-(Thiazol-2-yl)piperazin-1-ylmethyl]pyrrolo[1,2-a]quinazolin-5(4H)-one]
12 | 100% | O=c1[nH]c2cc(CN3CCN(c4ccccc4)CC3)cn2c2ccccc12 [Compound 2-4, 2-(4-Phenylpiperazin-1-ylmethyl)pyrrolo[1,2-a]quinazolin-5(4H)-one]
13 | 98% | CN1CCN(Cc2cc3[nH]c(=O)c4ccccc4n3c2)CC1 [Compound 2-10, 2-(4-Methylpiperazin-1-ylmethyl)pyrrolo[1,2-a]quinazolin-5(4H)-one]
14 | 99% | O=c1[nH]c2cc(CN3CCN(Cc4ccccc4)CC3)cn2c2ccccc12 [Compound 2-11, 2-(4-Benzylpiperazin-1-ylmethyl)pyrrolo[1,2-a]quinazolin-5(4H)-one]
15 | 96% | O=c1[nH]c2cc(CN3CCN(Cc4ccc(F)cc4)CC3)cn2c2ccccc12 [Compound 2-13, 2-[4-(4-Fluorobenzyl)piperazin-1-ylmethyl]pyrrolo[1,2-a]quinazolin-5(4H)-one]
16 | 98% | O=c1[nH]c2cc(CN3CCN(c4cccc(F)c4)CC3)cn2c2ccccc12 [Compound 2-15, 2-[4-(3-Fluorophenyl)piperazin-1-ylmethyl]pyrrolo[1,2-a]quinazolin-5(4H)-one]
17 | 95% | O=c1[nH]c2cc(CN3CCN(c4cccnc4)CC3)cn2c2ccccc12 [Compound 2-18, 2-[4-(Pyridine-3-yl)piperazin-1-ylmethyl]pyrrolo[1,2-a]quinazolin-5(4H)-one]
18 | 93% | CN(CCCc1ccccc1)Cc1cc2[nH]c(=O)c3ccccc3n2c1 [Compound 2-19, 2-[N-Methyl-N-(3-phenylpropyl)aminomethyl]pyrrolo[1,2-a]quinazolin-5(4H)-one]
